As a reminder, the EC50 is the concentration giving half of the maximal effect.

This is an account of results in US20030157107A1, “Agents for preventing or ameliorating insulin resistance and/or obesity” (priority 2000, published 2003).

The target in experiment [1] is T1, glucagon-receptor (Homo sapiens, UniProt P47871).
T1 construct: expressed in transfected cells; host or cells: CHO cells
The experiment can be described thus: Inhibition of glucagon-stimulated cAMP production in CHO cells expressing glucagon-receptor. The format is cell-based. Conditions: CHO cells expressing glucagon-receptor stimulated by 100 pM glucagon, read-out: inhibitory rate on the action of glucagon (cAMP production). The procedure: (§1) Screening of low molecular GIP function inhibitors was performed in accordance with the Example 1 of the screening method. Specifically, the GIP-receptor expressing CHO cells were stimulated with 100 pM GIP in the presence and absence of the test compound, and the amount of produced cAMP was measured to determine the GIP function inhibitory activity of the test compound. In addition, in order to confirm the receptor specificity of the test compound, the CHO cells expressing receptors of GLP-1 and glucagon which belong to glucagon-secretin family like GIP were stimulated with GLP-1 and glucagon (100 pM), respectively, and the inhibitory activity of the test compound on production of CAMP was determined. Moreover, in order to determine other effects which are unrelated to these receptors, the CHO cells without introducing any of these receptor genes were stimulated with 5 μM forskolin, and the inhibitory effect of the test compound on production of cAMP was determined. As for positive control, 500 nM GIP (7-30)-NH2 (tGIP) was used. [drawing 1]

Experiment [2] addresses T2, GLP-1-receptor (Homo sapiens, UniProt P43220).
T2 construct: expressed in transfected cells; host or cells: CHO cells
Briefly: Inhibition of GLP-1-stimulated cAMP production in CHO cells expressing GLP-1-receptor. The format is cell-based. The conditions noted are these: CHO cells expressing GLP-1-receptor stimulated by 100 pM GLP-1. The procedure:
as §1
For orientation: Changes in cAMP serve as a functional read-out for many G protein-coupled receptors.

In experiment [3] the target is T3, GIP-receptor (Homo sapiens, UniProt P48546).
T3 construct: expressed in transfected cells; host or cells: CHO cells
T3 sequence (P48546 22-466): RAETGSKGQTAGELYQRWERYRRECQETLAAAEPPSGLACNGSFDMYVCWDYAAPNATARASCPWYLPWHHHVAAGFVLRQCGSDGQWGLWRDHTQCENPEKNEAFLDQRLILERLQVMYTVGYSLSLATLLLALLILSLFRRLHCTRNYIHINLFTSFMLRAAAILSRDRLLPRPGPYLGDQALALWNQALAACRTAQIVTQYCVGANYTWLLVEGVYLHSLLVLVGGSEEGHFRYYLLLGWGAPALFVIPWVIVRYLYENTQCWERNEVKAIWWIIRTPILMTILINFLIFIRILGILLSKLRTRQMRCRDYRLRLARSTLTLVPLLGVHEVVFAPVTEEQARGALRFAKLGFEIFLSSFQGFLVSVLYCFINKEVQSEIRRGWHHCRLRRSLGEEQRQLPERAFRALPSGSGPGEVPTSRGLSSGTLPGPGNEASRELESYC
Briefly: Inhibition of GIP-stimulated cAMP production in GIP-receptor expressing CHO cells. Format: cell-based. The conditions noted are these: CHO cells expressing GIP-receptor stimulated by 100 pM GIP; read-out: EC50 of inhibition of the cAMP production inducing effect of GIP. The procedure:
1. A method for screening drugs by monitoring an inhibitory activity on the production of cAMP, an intracellular transmitter of GIP, which according to the method described by Kubota et al. (Diabetes, 45: 1701-1705, 1996), uses the human GIP-receptor expressing cells where […] is introduced into the CHO cells, and make cAMP produced by GIP in Krebs-Ringer buffer solution containing 1 mM isobutylmethylxanthine at 37° C. for 30 minutes in the presence of the drug. Then cAMP is extracted with 30% trichloroacetic acid, and radioimmunoassay is used to quantitate cAMP. Alternatively, Scintillation Proximity Assay (SPA) provided by Amersham Pharmacia Biotech Co., Inc. is used to quantitate cAMP.
Screening of low molecular GIP function inhibitors was performed in accordance with the Example 1 of the screening method. Specifically, the GIP-receptor expressing CHO cells were stimulated with 100 pM GIP in the presence and absence of the test compound, and the amount of produced cAMP was measured to determine the GIP function inhibitory activity of the test compound. […] Moreover, in order to determine other effects which are unrelated to these receptors, the CHO cells without introducing any of these receptor genes were stimulated with 5 μM forskolin, and the inhibitory effect of the test compound on production of cAMP was determined. […]

Experiment [4] relates to CHO cells without transfer of receptor genes. Briefly: Inhibition of forskolin-stimulated cAMP production in CHO cells without transfer of receptor genes. The format is cell-based. The conditions noted are these: 5 μM forskolin. The procedure: as §1
For experiment [5], the system named is glucose absorption by the intestine. The conditions noted are these: reported in WO98/24464; cited from earlier work.
The subject of experiment [6] is C57BL/6j mice. The experiment can be described thus: GIP administration and high fat diet loading test in normal mice. Format: in vivo. Conditions: high fat diet. The procedure:
The animals used were 17-week-old male C57BL/6j mice. An osmotic pump was implanted under the skin of the back of each animal. Groups of animals each consisting of 5 mice were continuously given GIP 20, 60 or 200 μg/kg/hour or physiological saline as control, and also given either high fat diet or control normal diet. The energy composition of high fat diet was: lipid 45%, carbohydrate 38%, and protein 17%. The energy composition of control normal diet was: lipid 13%, carbohydrate 60%, and protein 27%. The energy contents of high fat and control normal diets were 4.77 and 3.57 kcal/g, respectively. GIP administration and high fat diet loading were continued for 4 weeks.
The body weights were measured weekly, and their changes were compared between the groups. The blood samples were collected under fasting 4 weeks after the start of the experiment to determine the blood glucose and insulin levels.

Where [7] appears, read: continuous GIP 20, 60 or 200 μg/kg/hour, after 4 weeks, vs same diet without GIP.

No end group written: not given here.

T1 sequence (P47871 26-477, species assumed): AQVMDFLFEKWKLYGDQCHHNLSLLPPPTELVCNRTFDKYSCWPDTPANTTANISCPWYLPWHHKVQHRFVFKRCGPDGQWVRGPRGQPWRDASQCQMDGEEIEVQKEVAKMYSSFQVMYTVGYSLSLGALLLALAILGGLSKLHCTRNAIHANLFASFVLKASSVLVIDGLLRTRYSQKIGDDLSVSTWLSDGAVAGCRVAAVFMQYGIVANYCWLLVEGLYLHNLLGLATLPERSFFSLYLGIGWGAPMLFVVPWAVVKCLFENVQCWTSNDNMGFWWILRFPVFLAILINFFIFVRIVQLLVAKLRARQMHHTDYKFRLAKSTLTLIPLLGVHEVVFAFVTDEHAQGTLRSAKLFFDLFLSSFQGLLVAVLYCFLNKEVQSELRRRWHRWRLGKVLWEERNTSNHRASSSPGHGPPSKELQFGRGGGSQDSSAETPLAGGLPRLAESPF
T2 sequence (P43220 24-463, species assumed): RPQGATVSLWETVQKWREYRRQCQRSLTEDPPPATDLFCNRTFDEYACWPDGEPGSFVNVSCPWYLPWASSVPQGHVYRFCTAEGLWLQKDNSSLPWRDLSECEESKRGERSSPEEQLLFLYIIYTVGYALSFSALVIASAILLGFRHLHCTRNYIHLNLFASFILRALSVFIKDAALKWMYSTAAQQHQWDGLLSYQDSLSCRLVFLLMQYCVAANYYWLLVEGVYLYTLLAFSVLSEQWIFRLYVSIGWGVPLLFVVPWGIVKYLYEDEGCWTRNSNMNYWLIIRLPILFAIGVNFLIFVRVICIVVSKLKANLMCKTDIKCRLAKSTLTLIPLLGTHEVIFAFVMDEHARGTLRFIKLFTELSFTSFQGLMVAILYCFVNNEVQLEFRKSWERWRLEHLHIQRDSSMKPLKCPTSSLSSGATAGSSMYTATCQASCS

Consider `Cc1cc(O)n2nc(-c3ccccc3)c(Br)c2n1` [BMPP, 3-bromo-5-methyl-2-phenylpyrazolo[1,5-a]pyrimidine-7-ol], for which the inhibition at 80 µM in experiment [1] came to 27%. For the same molecule, the “inhibitory effect on GLP-1 action (cAMP production)” value in experiment [2] is reported as “almost no inhibitory effect”. Moreover, the EC50 in experiment [3] is roughly 30 µM. In addition, the “inhibitory effect on cAMP production stimulated by forskolin” value in experiment [4] is “did not show any inhibitory effect”.
Consider “GIP (7-30)-NH2: fragmented peptide of GIP, known GIP-receptor antagonist, used as positive control (ISDYSIAMDKIHQQDFVNWLLAQK-NH2; UniProt P09681 58-81, looked up, fragment)”, for which the “glucose absorption by the intestine” value in experiment [5] is recorded as “suppressed glucose absorption by the intestine”.
Turning to “GIP: gastric inhibitory polypeptide or glucose-dependent insulinotropic peptide, a gastrointestinal hormone (YAEGTFISDYSIAMDKIHQQDFVNWLLAQKGKKNDWKHNITQ; Gastric inhibitory polypeptide; UniProt P09681 52-93, looked up)”, the body weight gain result in experiment [6] (continuous GIP 20, 60 or 200 μg/kg/hour by osmotic pump, 4 weeks) is on record as “No further increase in the body weight gain”. For the same molecule, in experiment [6] (setting [7]), the “fasting blood glucose levels” value is listed as “increased depending on the dose of GIP” and the “fasting blood insulin levels” value is listed as “tended to increase depending on the dose of GIP”.
